Measured values from paper PMC8412337, “Alpha-single chains of collagen type VI inhibit the fibrogenic effects of triple helical collagen VI in hepatic stellate cells” (PLoS ONE, 2021).

Key:
[1] = system: CVI-induced proliferation of CFSC; assay: Inhibition of CVI-induced proliferation by α3(VI)-derived 30-mer peptides, [3H]-thymidine incorporation; type: cell-based, rat; conditions: serum-starved CFSC; 100-fold molar excess of 30-mer peptide compared to CVI; 24 h; n = 4; p<0.05
Protocol: (§1) 5x10^3CFSC in 100 μl 10% FBS were seeded into a 96-well flat-bottom tissue culture plate (Nunc, Roskilde, Denmark). After 24 hours, medium was completely removed, and cells were rinsed with 200 μl phosphate-buffered saline and 100 μl standard medium containing only 0.25% FBS were added. Cells were cultured for additional 24 h prior to treatment. Synchronized microcultures in 96-well plates were treated for 2 hours in reduction medium. When appropriate, the reduction medium was supplemented with 40 mg/l of α1(VI), α2(VI) or α3(VI). Then, 30 mg/l CVI or CI as control were added and cells were incubated for 24 h after which [^3H]-thymidine was added for additional 24 h. To assess effects of α3(VI)-derived 30-mer peptides on CVI-induced proliferation of CFSC, the reduction medium was supplemented with a 100-fold molar excess of the respective 30-mer peptides compared to CVI. [^3H]-thymidine incorporation was measured as described before. Cells treated with 150 mmol/l HAc or grown in 10% FBS served as negative and positive controls, respectively. During the last 4 hours of treatment, all cultures received 18.5 kBq [^3H]-thymidine (Amersham, Freiburg, Germany). Cells were fixed with 10% trichloroacetic acid and lysed by 200 mmol/l NaOH. After neutralization with 800 mmol/l HCl, lysates were collected to a glassfibre mat and the de-novo DNA synthesis was assessed by liquid scintillation (LKB Wallac, Bromma, Sweden) and the radioactive decay was counted (for) a minute (cpm).

[2] = system: CFSC; assay: Fibrosis-associated gene expression, quantitative real-time PCR; type: cell-based, rat
Protocol: 30 mg/l CVI, 133 mg/l of the monomeric alpha chains of CVI and/or TGF-β (2 ng/ml) were added after 24 h. […] Reverse transcribed complementary DNA templates were amplified by quantitative real-time polymerase chain reaction (PCR; Roche Diagnostics, Mannheim, Germany) using fluorogenic probes labeled with 6-carboxy-fluorescein and 6-carboxy-tetramethylrhodamin (Sigma- Genosys, Steinheim, Germany) and primer pairs (Invitrogen, Karlsruhe, Germany) specific for fibrosis-associated genes (for sequences see S2 Table). Gene expressions were normalized to glyceraldehyde phosphate dehydrogenase (GAPDH).

[3] = system: CVI-induced proliferation of HSC; assay: Inhibition of CVI-induced proliferation by alpha single chains, [3H]-thymidine incorporation; type: cell-based, rat; conditions: 40 mg/l single chain, then 30 mg/l CVI; 24 h; primary rHSCs, n = three; Fig 4A legend: CFSC, n = 4
Protocol: as §1

[4] = system: 10% FBS-induced proliferation of HSC; assay: Inhibition of 10% FBS-induced proliferation by alpha single chains, [3H]-thymidine incorporation; type: cell-based, rat; conditions: cells grown in 10% FBS, Fig 4A
Protocol: as §1

[5] = system: primary rat HSC; assay: FACS analysis of apoptosis (propidium iodide DNA content); type: cell-based; conditions: serum-starved primary rat HSC; text: within 24 hours, Fig 1C legend: 48 h; propidium iodide; three independent experiments
Protocol: Activated HSC (third passage) were serum starved for 24 h in standard medium without FBS (starving medium), followed by dissociation with 500 μl 0.05% trypsin-EDTA (Biochrom, Berlin, Germany) and neutralization with 30 ml starving medium containing 1 g/l soybean trypsin inhibitor and 1 g/l ovalbumin. Alternatively, cells were scraped carefully with a cell-scraper (Costar, Cambridge, MA, USA) to exclude any potential effect of trypsin. After centrifugation at 800 x g for 10 min, cells were washed twice with 20 ml PBS (w/o Ca^2+, Mg^2+; Biochrom, Berlin, Germany), resuspended in starving medium and plated at a density of 1.5-2x10^6 in 1.7 ml starving medium in 6-well plates (NUNC, Wiesbaden, Germany). Cells were then treated with starving medium, soluble CI or CVI (both at a final concentration of 30 mg/l), or 10% FBS. For quantification of spreading, cells that had attached were counted 12 hours after plating and spreading efficiency was determined as percentage of plated cells in each group. De-novo DNA synthesis and apoptosis were assessed by morphological criteria, Cell death detection ELISA and FACS analysis as described below. […] After blocking the cells 1h with DMEM+1% FBS, the cells were incubated with primary antibodies against a-actin (Sigma-Aldrich, Taufkirchen, Germany, #A2547; dilution 1:200) and GFAP (Sigma-Aldrich, #G9269; dilution 1:20) followed by a washing step with PBS and the incubation with fluorescence-labeled secondary antibodies (Alexa Fluor 546 & Alexa Fluor 488, Molecular Probes, Eugene, USA, #A11030 & #A11034; dilution 1:100). […] Cells were analyzed by fluorescence microscopy (Zeiss, Jena, Germany; Kodak Ektachrome P1600 and a quantitative staining analysis was performed using Image J software (version 1.50i; National Institutes of Health, Bethesda, […], USA).
10^5 of freshly set cells were treated with starving medium, CI, CVI or 10% FBS for 24 or 48 hours as described before. […] Fixed cells were stained with propidium iodide (50 mg/l) in a final volume of 1 ml before being subjected to fluorescence activated cell sorting (FACS) analysis.

[6] = system: primary rat HSC; assay: Cell Death Detection ELISA (oligonucleosomal DNA fragments); type: cell-based; conditions: OD of sample divided by OD of 10% FBS group, three independent experiments
Protocol: 10^5 cells were seeded in 6-well plates and treated with starving medium or medium plus CI, CVI or 10% FBS. After 24 or 48 h floating and adherent cells were pooled, and lysed with 500 μl of 1% SDS, 10 mM Tris, pH 7.4 (lysis buffer), for 30 min at 4°C. Lysed cells were transferred to 1.5 ml Eppendorf tubes and centrifuged at 13,000 rpm for 20 min, to separate low molecular weight DNA (oligonucleosome-sized fragments derived from apoptotic cells) from high molecular weight DNA (from viable cells). 400 μl of the supernatant containing oligonucleosomes were transferred to another Eppendorf tube and diluted 1:5 with lysis buffer. 100 μl aliquots were used for the Cell Death Detection ELISA, which was performed according to the manufacturer’s instructions (Boehringer Mannheim, Germany). In brief, antibodies against histones were coated onto 96-wells, 100 μl lysate-samples containing oligonucleotides and histones were added and incubated for one hour. After washing, wells were incubated with anti-double strand DNA antibody coupled to peroxidase for one hour. After reaction with peroxidase substrate, absorbance was measured at 405 nm using an ELISA reader. Background values (lysis-buffer alone) were subtracted, and results are shown as enrichment factor [enrichment factor: OD (optical density) of the sample (apoptotic cells) divided by the OD of the corresponding control (viable cells, 10% FBS-group). A defined positive control was prepared using a hypertonic buffer, containing 10 mM Tris, 400 mM NaCl, 5 mM CaCl2 and 10 mM MgCl2, instead of starving medium.

[7] = system: Bax and Bcl-2 in activated HSCs; assay: Western-blot analysis of Bax and Bcl-2; type: cell-based, rat; conditions: 24 hours culture after serum starvation; densitometry; three independent experiments
Protocol: Dislodged cells were centrifuged at 800 x g/10 min and lysed with 100 μl lysis buffer. The protein concentration was determined using NanoOrange® Protein Quantitation Kit (Life Technologies) according to the manufacturer’s instructions. Briefly, protein solutions were mixed with the diluted NanoOrange reagent in 1.5 ml polypropylene tubes and heated at 95°C for 10 min in a thermomixer (Peqlab, Erlangen, Germany). Tubes were centrifuged and 200 μl of each sample were transferred to a black 96 well flat-bottom plate (Greiner BioOne, Frickenhausen, Germany). The emitted fluorescence was assessed at 570 nm in a SpectraMax Gemini EM (Molecular Devices, Biberach an der Riß, Germany). Protein concentrations were calculated from a bovine serum albumin standard curve. Equivalent amounts (10–50 μg) of protein were used in […]. Sample buffer (1:1) was added and the aliquots (20 μl final volume) were boiled for 5 min and subjected to 12% SDS-PAGE. After blocking for 1 h at room temperature in 10 mmol Tris-HCl, pH 7.5, 100 mmol NaCl, containing 0.1% Tween 20 and 3% bovine serum albumine (BSA), nitrocellulose-membranes were incubated either with polyclonal rabbit anti-rat antibodies to Bax (1:1000, sc-493), Bcl-2 (1:1000, sc783, both Santa Cruz, Santa Cruz, USA), α-actin (1:4000, A2547, Sigma) or β-actin (1:10,000, A5441, Sigma). Membranes were then washed in 10 mmol Tris-HCl, 100 mmol NaCl, 0.1% Tween 20, pH 7.5, and incubated with anti-rabbit IgG coupled to peroxidase (1:1000, A4416, Sigma) for 1 h at room temperature or directly developed (RC20H). Bands were detected with the ECL chemiluminescence reagent (Amersham-Pharmacia, Freiburg, Germany). After stripping in 0.1 M glycin-HCl, pH 2, for 20 min at room temperature, membranes were reprobed with appropriate primary and secondary antibodies. Band intensities were analyzed by densitometry and normalized to β-actin.

[8] = system: primary rat HSCs; assay: [3H]-thymidine incorporation, de-novo DNA synthesis; type: cell-based; conditions: primary rHSCs; CVI at 10 μg/ml; within 24 hours; three independent experiments
[9] = CFSC, medium containing 0.2% FBS, S3 Fig, one out of two independent experiments

Substance: DGDKGLPGSSGEKGNPGRRGDKGPRGEKGE [A5, α3(VI)-derived synthetic 30-mer peptide]
- inhibition of CVI-induced proliferation [1]: no or weaker inhibitory activities

Substance: GNPGQDSQERGPKGETGDLGPMGVPGRDGV [B1, α3(VI)-derived synthetic 30-mer peptide]
- inhibition of CVI-induced proliferation [1]: strong growth inhibitory effects

Substance: DKGPRGEKGERGDVGIRGDPGNPGQDSQER [A6, α3(VI)-derived synthetic 30-mer peptide]
- inhibition of CVI-induced proliferation [1]: no or weaker inhibitory activities

Substance: GIRGRRGNSGPPGIVGQKGRPGYPGPAGPR [C4, α3(VI)-derived synthetic 30-mer peptide]
- inhibition of CVI-induced proliferation [1]: strong growth inhibitory effects

Substance: PPGLIGEQGISGPRGSGGARGAPGERGRTG [B5, α3(VI)-derived synthetic 30-mer peptide]
- inhibition of CVI-induced proliferation [1]: no or weaker inhibitory activities

Substance: TGF-β [reference compound]
- time after which CI expression increased [2, 9]: ~ 8 h
- time of maximum CI expression [2, 9]: ~ 24 h
- reduction of the expression of MMP-3 ([2]; serum-starved CFSC, 24 h, TGF-β 2 ng/ml, CVI 30 mg/l, qPCR normalized to GAPDH): ~ 70%

Substance: RDGVGSEGRRGKKGERGFPGYPGPKGNPGE [C2, α3(VI)-derived synthetic 30-mer peptide]
- inhibition of CVI-induced proliferation [1]: strong growth inhibitory effects

Substance: α1(VI): monomeric alpha 1 single chain of collagen VI isolated from human placentas
- effect on CVI-induced expression of αSMA, CI and TGF-β ([2]; serum-starved CFSC, 30 mg/l CVI plus 133 mg/l monomeric alpha chain, 24 h, n = 4): some inhibitory effects
- inhibition of DNA synthesis in the presence of CVI [3]: did not show any effect
- effect on 10% FBS-induced proliferation [4]: had no effect

Substance: CI: Human collagen I isolated from placentas by pepsin digestion; served as a control
- percentage of apoptotic cells (FACS) [5]: 80%
- enrichment factor of oligonucleosomal fragments ([6]; after 24 hours): 5
- enrichment factor of oligonucleosomal fragments ([6]; after 48 hours): 30
- Bax to Bcl-2 ratio [7]: 7.0
- de-novo DNA synthesis ([3H]-thymidine incorporation) [8]: little DNA incorporation

Substance: GFPGEKGEVGEIGLDGLDGEDGDKGLPGSS [A4, α3(VI)-derived synthetic 30-mer peptide]
- inhibition of CVI-induced proliferation [1]: strong growth inhibitory effects

Substance: GAPGERGRTGPLGRKGEPGEPGPKGGIGNP [B6, α3(VI)-derived synthetic 30-mer peptide]
- inhibition of CVI-induced proliferation [1]: no or weaker inhibitory activities

Substance: DGYRGYPGDEGGPGERGPPGVNGTQGFQGC [A2, α3(VI)-derived synthetic 30-mer peptide]
- inhibition of CVI-induced proliferation [1]: no or weaker inhibitory activities

Substance: VNGTQGFQGCPGQRGVKGSRGFPGEKGEVG [A3, α3(VI)-derived synthetic 30-mer peptide]
- inhibition of CVI-induced proliferation [1]: strong growth inhibitory effects
